Patent US5100905A, “Method for inhibiting growth of bacteria, fungi or algae by treatment with biocide composition” (Rohm and Haas Company, priority 1991, dated 1992)

Test system: mixture of the following 12 microorganisms: Escherichia coli, Candida albicans, Pseudomonas oleovarans, Pseudomonas aeruginosa, Staphylococcus aureus …
Test: Growth inhibition / minimum inhibitory concentration (MIC) by 2-fold serial dilutions in Trypticase Soy Broth, 3 inoculations; for Growth after inoculation: key: -: growth inhibited; +: growth not inhibited
Format: cell-based
Description: Each single culture was inoculated to TSB agar slants and incubated for 2 days at 30° C. for C. albicans and all bacteria except E. coli and S. aureus, which were at 37° C., and incubated for 10-14 days at 25° C. for fungal cultures. The bacteria and fungi were then washed off the slants with phosphate buffer (0.125 M, pH 7.2) and inoculated into each test tube containing a given concentration and ratio of 573 and 886 to make final cell concentration of about 2×10^7 bacteria and 2×10^6 fungi per ml. […] Seven days after inoculation, 5 microliter of sample from each test tube (containing about 10^5 bacteria and 10^4 fungi from original inoculation) was removed and assessed for viable organisms by 1:50 dilution into TSB medium and checked for regrowth. No viable organisms were detected from the test tubes where MICs were observed. […] Each test tube was reinoculated 2 more times (a total of 3 inoculations) to determine the capacity and the longlasting activity of the combinations.
As shown, a wide range of concentration and ratios was tested. More importantly all the critical end-point activities for the combinations were covered. […] Thus, the end-point activities are based on the minimum concentrations of a given ratio of combination product that inhibit all three inoculations.

`Cn1sccc1=O` [compound 573, 2-methyl-4-isothiazolin-3-one] was tested, and the Growth after inoculation (Expt. 1, 1st inoculation, 573(A) 0.5 ppm) was “+”, the Growth after inoculation (Expt. 1, 1st inoculation, 573(A) 1.0 ppm) was “+” and the Growth after inoculation (Expt. 1, 1st inoculation, 573(A) 2.0 ppm) was “+”. For the same molecule, the Growth after inoculation (Expt. 1, 1st inoculation, 573(A) 3.9 ppm) was “+”, the Growth after inoculation (Expt. 1, 1st inoculation, 573(A) 9.8 ppm) was “+” and the Growth after inoculation (Expt. 1, 1st inoculation, 573(A) 15.6 ppm) was “+”. The Growth after inoculation (Expt. 1, 1st inoculation, 573(A) 31.2 ppm) was “+”, the Growth after inoculation (Expt. 1, 1st inoculation, 573(A) 62.5 ppm) was “+” and the Growth after inoculation (Expt. 1, 1st inoculation, 573(A) 125.0 ppm) was “+”. The Growth after inoculation (Expt. 1, 1st inoculation, 573(A) 250.0 ppm) was “-”, the Growth after inoculation (Expt. 1, 1st inoculation, 573(A) 500.0 ppm) was “-” and the Growth after inoculation (Expt. 1, 2nd inoculation, 573(A) 0.5 ppm) was “+”. For the same molecule, the Growth after inoculation (Expt. 1, 2nd inoculation, 573(A) 1.0 ppm) was “+”, the Growth after inoculation (Expt. 1, 2nd inoculation, 573(A) 2.0 ppm) was “+” and the Growth after inoculation (Expt. 1, 2nd inoculation, 573(A) 3.9 ppm) was “+”. For the same molecule, the Growth after inoculation (Expt. 1, 2nd inoculation, 573(A) 9.8 ppm) was “+”, the Growth after inoculation (Expt. 1, 2nd inoculation, 573(A) 15.6 ppm) was “+” and the Growth after inoculation (Expt. 1, 2nd inoculation, 573(A) 31.2 ppm) was “+”. For the same molecule, the Growth after inoculation (Expt. 1, 2nd inoculation, 573(A) 62.5 ppm) was “+”, the Growth after inoculation (Expt. 1, 2nd inoculation, 573(A) 125.0 ppm) was “+” and the Growth after inoculation (Expt. 1, 2nd inoculation, 573(A) 250.0 ppm) was “+”. For the same molecule, the Growth after inoculation (Expt. 1, 2nd inoculation, 573(A) 500.0 ppm) was “-”, the Growth after inoculation (Expt. 1, 3rd inoculation, 573(A) 0.5 ppm) was “+” and the Growth after inoculation (Expt. 1, 3rd inoculation, 573(A) 1.0 ppm) was “+”. For the same molecule, the Growth after inoculation (Expt. 1, 3rd inoculation, 573(A) 2.0 ppm) was “+”, the Growth after inoculation (Expt. 1, 3rd inoculation, 573(A) 3.9 ppm) was “+” and the Growth after inoculation (Expt. 1, 3rd inoculation, 573(A) 9.8 ppm) was “+”. The Growth after inoculation (Expt. 1, 3rd inoculation, 573(A) 15.6 ppm) was “+”, the Growth after inoculation (Expt. 1, 3rd inoculation, 573(A) 31.2 ppm) was “+” and the Growth after inoculation (Expt. 1, 3rd inoculation, 573(A) 62.5 ppm) was “+”. For the same molecule, the Growth after inoculation (Expt. 1, 3rd inoculation, 573(A) 125.0 ppm) was “+”, the Growth after inoculation (Expt. 1, 3rd inoculation, 573(A) 250.0 ppm) was “+” and the Growth after inoculation (Expt. 1, 3rd inoculation, 573(A) 500.0 ppm) was “-”. The “End-point activity (MIC) Qa (573 in the mixture of 573 and 886)” value (Expt. 1, all three inoculations) was 500.0 ppm, the Growth after inoculation (Expt. 2, 1st inoculation, 573(A) 0.5 ppm) was “+” and the Growth after inoculation (Expt. 2, 1st inoculation, 573(A) 1.0 ppm) was “+”. The Growth after inoculation (Expt. 2, 1st inoculation, 573(A) 2.0 ppm) was “+”, the Growth after inoculation (Expt. 2, 1st inoculation, 573(A) 3.9 ppm) was “+” and the Growth after inoculation (Expt. 2, 1st inoculation, 573(A) 9.8 ppm) was “+”. For the same molecule, the Growth after inoculation (Expt. 2, 1st inoculation, 573(A) 15.6 ppm) was “+”, the Growth after inoculation (Expt. 2, 1st inoculation, 573(A) 31.2 ppm) was “+” and the Growth after inoculation (Expt. 2, 1st inoculation, 573(A) 62.5 ppm) was “+”. For the same molecule, the Growth after inoculation (Expt. 2, 1st inoculation, 573(A) 125.0 ppm) was “-”, the Growth after inoculation (Expt. 2, 1st inoculation, 573(A) 250.0 ppm) was “-” and the Growth after inoculation (Expt. 2, 1st inoculation, 573(A) 500.0 ppm) was “-”. For the same molecule, the Growth after inoculation (Expt. 2, 2nd inoculation, 573(A) 0.5 ppm) was “+”, the Growth after inoculation (Expt. 2, 2nd inoculation, 573(A) 1.0 ppm) was “+” and the Growth after inoculation (Expt. 2, 2nd inoculation, 573(A) 2.0 ppm) was “+”. The Growth after inoculation (Expt. 2, 2nd inoculation, 573(A) 3.9 ppm) was “+”, the Growth after inoculation (Expt. 2, 2nd inoculation, 573(A) 9.8 ppm) was “+” and the Growth after inoculation (Expt. 2, 2nd inoculation, 573(A) 15.6 ppm) was “+”. For the same molecule, the Growth after inoculation (Expt. 2, 2nd inoculation, 573(A) 31.2 ppm) was “+”, the Growth after inoculation (Expt. 2, 2nd inoculation, 573(A) 62.5 ppm) was “+” and the Growth after inoculation (Expt. 2, 2nd inoculation, 573(A) 125.0 ppm) was “-”. For the same molecule, the Growth after inoculation (Expt. 2, 2nd inoculation, 573(A) 250.0 ppm) was “-”, the Growth after inoculation (Expt. 2, 2nd inoculation, 573(A) 500.0 ppm) was “-” and the Growth after inoculation (Expt. 2, 3rd inoculation, 573(A) 0.5 ppm) was “+”. For the same molecule, the Growth after inoculation (Expt. 2, 3rd inoculation, 573(A) 1.0 ppm) was “+”, the Growth after inoculation (Expt. 2, 3rd inoculation, 573(A) 2.0 ppm) was “+” and the Growth after inoculation (Expt. 2, 3rd inoculation, 573(A) 3.9 ppm) was “+”. For the same molecule, the Growth after inoculation (Expt. 2, 3rd inoculation, 573(A) 9.8 ppm) was “+”, the Growth after inoculation (Expt. 2, 3rd inoculation, 573(A) 15.6 ppm) was “+” and the Growth after inoculation (Expt. 2, 3rd inoculation, 573(A) 31.2 ppm) was “+”. For the same molecule, the Growth after inoculation (Expt. 2, 3rd inoculation, 573(A) 62.5 ppm) was “+”, the Growth after inoculation (Expt. 2, 3rd inoculation, 573(A) 125.0 ppm) was “-” and the Growth after inoculation (Expt. 2, 3rd inoculation, 573(A) 250.0 ppm) was “-”. For the same molecule, the Growth after inoculation (Expt. 2, 3rd inoculation, 573(A) 500.0 ppm) was “-”, the “End-point activity (MIC) Qa (573 in the mixture of 573 and 886)” value (Expt. 2, all three inoculations) was 125.0 ppm and the “Contribution to the overall activity of 886” value (at very low concentrations (<8 ppm)) was “does not contribute significantly to the overall activity of 886”.
